{"source": "patent US20240309009A1", "about": "“Anxiolytic Compounds, Pharmaceutical Compositions, and Methods of Treating Anxiety and Other Disorders” (Miralogx LLC, priority 2022, published 2024)", "origin": "cited, not measured here", "key": {"[1]": {"tested_on": "rat nerve cells"}, "[2]": {"tested_on": "zebrafish"}, "[3]": {"tested_on": "cell cultures"}, "[4]": {"details": "unlike ibogaine"}}, "note": "Read-outs that look alike come from different tables or passages of the source.", "data": [{"smiles": "COc1ccc2c3c([nH]c2c1)CCN(C)CC3", "note": "[TBG, Tabernanthalog]", "values": [{"measurement": "formation of new dendrites (branches)", "setting": "[1]", "result": "increased formation of new dendrites"}, {"measurement": "formation of new spines on dendrites", "setting": "[1]", "result": "new spines on those dendrites"}, {"measurement": "toxicity compared with ibogaine", "setting": "[2]", "result": "less toxic than ibogaine"}, {"measurement": "toxicity compared with ibogaine", "setting": "[3]", "result": "less toxic than ibogaine"}, {"measurement": "water solubility", "setting": "[4]", "result": "water-soluble"}]}, {"smiles": "CN(C)CCc1c[nH]c2ccccc12", "note": "[DMT, N,N-Dimethyltryptamine]", "values": [{"measurement": "duration of effects", "setting": "inhaled or injected", "result": "5 to 15", "unit": "min"}, {"measurement": "duration of effects", "setting": "orally ingested along with a monoamine oxidase inhibitor (MAOI)", "result": "three"}]}]}
